Entries after “also recorded” stand apart in the source; their conditions may differ.
Experiments:
ANBL-6 cells [1] = assay: Apoptosis assay, KNK437 with bortezomib; format: cell-based; conditions: ANBL-6, KNK437 with bortezomib, 12 hours, compared with control treated cells
Description: (§1) ANBL-6 and KAS-6 cells were incubated with 10 mcg/ml (ANBL-6) or 1 mcg/ml (KAS-6) of CNTO 328 or the control antibody, F105, for 8 (ANBL-6) to 12 (KAS-6) hours. Apoptosis was determined using an ELISA-based assay that measures the presence of mono- and oligo-nucleosomes (Roche Applied Science, Indianapolis, Ind.) and expressed as a fold increase in apoptosis over DMSO and F105-treated controls. Cells were treated in RPMI 1640 media containing 10% FBS and 1 ng/mL of IL-6 (FIGS. 3 A and B, column height represents the mean of triplicate cultures; bars, SEM).
(§2) ANBL-6 or MEF cells (control and HSF-1−/−) were incubated with either DMSO control or increasing concentrations of bortezomib and KNK437 for 12 (ANBL-6) to 24 hours (MEFs). Apoptosis was determined as described above and expressed as a fold increase in apoptosis over DMSO-treated controls. ANBL-6 cells were treated in RPMI 1640 media containing 10% FBS and 1 ng/mL of IL-6 (FIG. 5, columns, mean of triplicate cultures; bars, SEM).

[2] = tested on: normal mouse embryo fibroblasts (MEFs); assay: Apoptosis assay, KNK437 with bortezomib; format: cell-based; conditions: normal (HSF-1+/+) MEFs, 24 hours
Description: as §1, §2

HSF-1 knockout MEFs = assay: Apoptosis assay, KNK437 with bortezomib; format: cell-based, mouse; conditions: 24 hours
Description: as §1, §2

KAS-6 cells [3] = assay: Apoptosis, KNK437 with bortezomib; format: cell-based
[4] = tested on: refractory or relapsed myeloma; conditions: refractory or relapsed disease, initial phase II clinical trial (Richardson et al. 2003); cited from earlier work
proteasome = conditions: over human leukocyte elastase, cathepsin G, chymotrypsin and thrombin; cited from earlier work
[5] = tested on: IL-6 signaling, HSP-70 and MKP-1 in ANBL-6 cells; assay: Immunoblot analysis of IL-6 signaling, HSP-70 and MKP-1 with densitometry; format: cell-based
Description: ANBL-6 cells were incubated with 10 mcg/ml of CNTO 328 or the control antibody, F105, with or without increasing concentrations of bortezomib for 8 hours. Cell lysates were prepared and subjected to immunoblot analysis. Blots were stripped and probed for HSC-70 to ensure equal protein loading per lane. Densitometry was performed on HSP-70 and MKP-1 immunoblots.

[6] = tested on: IL-6-independent RPMI 8226 myeloma cell line; assay: WST-1 cell viability, antibody combined with bortezomib; format: cell-based; conditions: RPMI 8226, 10 mcg/ml antibody pre-incubated 24 hours, then bortezomib 24 hours
Description: (§3) ANBL-6 and KAS-6 cells (Dr. Diane Jelinek, Mayo Clinic, Rochester, Minn.) were incubated with increasing concentrations of CNTO 328 or the isotype control antibody, F105, for 24 and 48 hours. For the last 4 hours, the cells were incubated in the presence of WST-1 (Roche Applied Science, Indianapolis, Ind.). Reduction of WST-1 into a water soluble formazan salt by viable cells was measured at an absorbance of 450 nm using an ELISA plate reader. Viability was measured as percent viability relative to untreated cells. All cells were treated in RPMI 1640 media containing 10% FBS and 1 ng/mL of IL-6.
(§4) The ANBL-6, KAS-6, or IL-6-independent RPMI 8226 myeloma cell lines were pre-incubated with 0.1 mcg/ml (KAS-6) or 10 mcg/ml (ANBL-6 and RPMI 8226) of the control antibody, F105, or CNTO 328 for 24 hours, followed by co-incubation with either DMSO control or increasing concentrations of bortezomib in the continued presence of F105 or CNTO 328 for another 24 hours. For sequencing experiments, ANBL-6 cells were treated with: 1) F105 or CNTO 328 for 24 hours followed by F105 or CNTO 328 and bortezomib 5 nM for another 24 hours (antibody→bortezomib); 2) F105 or CNTO 328 and bortezomib 5 nM concurrently for 24 hours (antibody+bortezomib), or bortezomib at 5 nM for 12 hours followed by F105 or CNTO 328 for 24 hours (bortezomib→antibody). Cell viability was assayed as described above and measured as percent viability relative to untreated cells. All cells were treated in RPMI 1640 media containing 10% FBS and 1 ng/mL of IL-6. Columns, mean of quintuplicate cultures; bars, SEM.

ANBL-6 cells [7] = assay: as above; format: cell-based
Description: as §3, §4

KAS-6 cells [8] = assay: as above; format: cell-based; conditions: KAS-6, 0.1 mcg/ml antibody pre-incubated 24 hours, then bortezomib 24 hours; relative to control antibody F105
Description: as §3, §4

[9] = tested on: IL-6 signaling in KAS-6 cells; assay: Down-regulation of IL-6 signaling (phospho-protein levels); format: cell-based
ANBL-6 cells [10] = assay: ELISA-based apoptosis assay (mono- and oligo-nucleosomes), antibody and bortezomib; format: cell-based; conditions: ANBL-6, 10 mcg/ml CNTO 328 with bortezomib, 8 hours
Description: as §1

KAS-6 cells [11] = assay: as above; format: cell-based; conditions: KAS-6, 1 mcg/ml CNTO 328 with bortezomib, 12 hours
Description: as §1

[12] = tested on: IL-6-independent myeloma cell line RPMI 8226; assay: ELISA-based apoptosis assay, antibody and bortezomib; format: cell-based; conditions: RPMI 8226, data not shown
ANBL-6 cells [13] = assay: WST-1 cell viability, antibody alone; format: cell-based; conditions: increasing concentrations, 24 and 48 hours, 1 ng/mL of IL-6
Description: as §3

KAS-6 cells [14] = assay: WST-1 cell viability, antibody alone; format: cell-based; conditions: increasing concentrations, 24 and 48 hours, 1 ng/mL of IL-6
Description: as §3

[15] = 10 mcg/ml CNTO 328 with bortezomib, 8 hours, densitometry
[16] = CNTO 328 with bortezomib, immunoblot

O=CN1CC/C(=C\c2ccc3c(c2)OCO3)C1=O [KNK437]
bortezomib-mediated apoptosis (fold increase over DMSO-treated controls) (ANBL-6 cells [1]): significant increase in bortezomib-mediated apoptosis | synergistic activity with bortezomib (apoptosis) [2]: reproduced | synergistic activity with bortezomib (apoptosis) (HSF-1 knockout MEFs): blunted | apoptotic activity of bortezomib (KAS-6 cells [3]): enhanced the apoptotic activity of bortezomib

CC(C)C[C@H](NC(=O)[C@H](Cc1ccccc1)NC(=O)c1cnccn1)B(O)O [bortezomib, reference compound]
patients with partial responses or better [4]: 27% | selectivity for the proteasome over other serine proteases (proteasome): > 500 fold | levels of phospho-STAT-3 ([5]; 8 hours, immunoblot): decreased levels | levels of phospho-p42/44 MAPK ([5]; 8 hours, immunoblot): decreased levels

CNTO 328: chimeric monoclonal IL-6 neutralizing antibody
effect on activity of bortezomib (cell viability) [6]: did not enhance the activity of bortezomib | effect on cytotoxicity of bortezomib (cell viability) (ANBL-6 cells [7]; ANBL-6, 10 mcg/ml antibody pre-incubated 24 hours, then bortezomib 24 hours, relative to control antibody F105): potentiated the cytotoxicity of bortezomib | effect on cytotoxicity of bortezomib, sequencing (ANBL-6 cells [7]; ANBL-6, antibody 24 hours followed by antibody and bortezomib 5 nM 24 hours (antibody→bortezomib)): enhanced the cytotoxicity of bortezomib most | effect on cytotoxicity of bortezomib, sequencing (ANBL-6 cells [7]; ANBL-6, antibody and bortezomib 5 nM concurrently for 24 hours (antibody+bortezomib)): enhanced the cytotoxicity of bortezomib most | effect on cytotoxicity of bortezomib, sequencing (ANBL-6 cells [7]; ANBL-6, bortezomib 5 nM 12 hours followed by antibody 24 hours (bortezomib→antibody)): little additional effect | effect on cytotoxicity of bortezomib (cell viability) (KAS-6 cells [8]): potentiated the cytotoxicity of bortezomib | phospho-STAT-3 and phospho-p42/44 MAPK levels [9]: marked decrease | induction of apoptosis (fold increase over DMSO and F105-treated controls) (ANBL-6 cells [10]): enhanced induction of apoptosis; also recorded: greater than the sum of the two individual agents alone | induction of apoptosis (fold increase over DMSO and F105-treated controls) (KAS-6 cells [11]): enhanced induction of apoptosis; also recorded: greater than the sum of the two individual agents alone | decrease of bortezomib-mediated induction of HSP-70 [5, 15]: 45% | decrease of bortezomib-mediated induction of MKP-1 [5, 15]: 90% | levels of phospho-STAT-3 ([5]; 8 hours, immunoblot): reduction in levels | levels of phospho-p42/44 MAPK ([5]; 8 hours, immunoblot): reduction in levels | levels of hyperphosphorylated HSF-1 [5, 16]: decreased levels | levels of transcriptionally active phospho-STAT-1 [5, 16]: decreased levels | potentiation of apoptosis [12]: not able to potentiate apoptosis | cell viability (percent viability relative to untreated cells) (ANBL-6 cells [13]): dose- and time-dependent reduction in cell viability | cell viability (percent viability relative to untreated cells) (KAS-6 cells [14]): dose- and time-dependent reduction in cell viability

Reference: patent US20090022726A1, “METHOD OF USING IL6 ANTAGONISTS WITH PROTEASOME INHIBITORS” (priority 2005, published 2009)
